≈ marks a conversion by molar mass, not a printed value.
How the values were obtained:
CaCi2 = experiment: Antifungal sensitivity testing (broth microdilution MIC); type: cell-based; conditions: CaCi2, 96-well broth microdilution, compounds in DMSO
Experimental: Minimum inhibitory concentrations (MICs) were determined in flat bottom, 96-well plate format using a modified broth microdilution protocol as previously described (Singh et al., PLoS Pathog. 5, e1000532 (2009); LaFayette et al., PLoS Pathog. 6, 79-80 (2010)). Compounds were formulated in dimethyl sulfoxide (DMSO, Sigma-Aldrich Co.). Each compound was tested in duplicate in at least two independent experiments.

[1] = Mammalian cell toxicity (Cell Titer-Glo); type: cell-based; conditions: human; HepG2 cells, 48 h incubation, Cell Titer-Glo luminescence
Experimental: HepG2 cells were seeded overnight at 500 cells/well in 384-well plate, then incubated with compounds (10-point concentration titration) for 48 h. Cell Titer-Glo® reagent ([…]) was added to each well and after 10-minute incubation at room temperature the luminescent signal was measured using an Envision plate reader (Perkin Elmer).

[2] = target: T1, purified recombinant Yck2 (Candida albicans, UniProt A0A1D8PKB4); experiment: HotSpot kinase assay; type: biochemical, C. albicans
T1 construct: Yck2 residues 37-345 were PCR amplified from C. albicans genomic DNA; His6 (N); TEV protease site (N); made in house; host or cells: E. coli BL21(DE3)-Gold
Experimental: IC50s were determined using the in vitro HotSpot kinase assay (purified enzymes, ^33P-ATP, an appropriate substrate and 1 μM ATP). For enzyme inhibition assays, compounds were tested in range of ten concentrations from 10 uM to 0.0005 uM using purified recombinant Yck2. Reaction conditions were 1 uM ATP, one hour incubation with inhibitor, and kinase activity detected using 33-ATP phosphorylation of an appropriately selected peptide substrate.
Yck2 residues 37-345 were PCR amplified from C. albicans genomic DNA and subcloned into the vector pMCSG53, which codes for a N-terminal His6 tag, TEV protease site, followed by the Yck2 protein. E. coli BL21(DE3)-Gold competent cells were transformed with this plasmid and the Yck2 protein was purified using methodology previously described (Stogios et al., ACS Chem. Biol. 13, 1322-1332 (2018)).

T1 sequence (A0A1D8PKB4 entry or part of it): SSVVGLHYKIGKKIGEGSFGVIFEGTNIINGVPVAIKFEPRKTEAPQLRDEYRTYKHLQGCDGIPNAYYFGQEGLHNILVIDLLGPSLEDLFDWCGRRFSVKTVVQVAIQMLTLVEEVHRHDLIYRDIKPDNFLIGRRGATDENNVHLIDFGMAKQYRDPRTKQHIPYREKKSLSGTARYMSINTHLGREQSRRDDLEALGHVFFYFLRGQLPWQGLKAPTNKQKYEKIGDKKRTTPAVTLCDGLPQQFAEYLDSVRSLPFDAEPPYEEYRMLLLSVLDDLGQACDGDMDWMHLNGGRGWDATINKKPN

Compound: Fc1ccc(-c2nn3cc(CNC[C@H]4CO[C@@](Cn5cncn5)(c5ccc(F)cc5F)C4)ccc3c2-c2ccncc2)cc1 (stereo in doubt) [Compound I-257, 1-(cis-5-((1H-1,2,4-triazol-1-yl)methyl)-5-(2,4-difluorophenyl)tetrahydrofuran-3-yl)-N-((2-(4-fluorophenyl)-3-(pyridin-4-yl)pyrazolo[1,5-a]pyridin-6-yl)methyl)methanamine]
- MIC50 (CaCi2): 0.295 µM (≈ 0.176 µg/mL)
- IC50 at 48 h [1]: 5.57 µM

Compound: Nc1nccc(-c2c(-c3ccc(F)cc3)ncn2C2CCN(CCCNCC(O)(Cn3cncn3)c3ccc(F)cc3F)CC2)n1 (stereo not drawn) [Compound I-80, 1-((3-(4-(5-(2-aminopyrimidin-4-yl)-4-(4-fluorophenyl)-1H-imidazol-1-yl)piperidin-1-yl)propyl)amino)-2-(2,4-difluorophenyl)-3-(1H-1,2,4-triazol-1-yl)propan-2-ol]
- IC50 [2]: 3.33 nM
- IC50 at 48 h [1]: > 20 µM

Compound: O=C(NC1CCN(C[C@](O)(Cn2cncn2)c2ccc(F)cc2F)CC1)c1ccc2c(-c3ccncc3)c(-c3ccc(F)cc3)nn2c1 [Compound I-102, (S)-N-(1-(2-(2,4-difluorophenyl)-2-hydroxy-3-(1H-1,2,4-triazol-1-yl)propyl)piperidin-4-yl)-2-(4-fluorophenyl)-3-(pyridin-4-yl)pyrazolo[1,5-a]pyridine-6-carboxamide]
- IC50 [2]: 46.6 nM
- MIC50 (CaCi2): 3.12 µM (≈ 2.04 µg/mL)
- IC50 at 48 h [1]: 2.24 µM

Compound: O=C(NC1CCN(C[C@@](O)(Cn2cncn2)c2ccc(F)cc2F)CC1)c1ccc2c(-c3ccncc3)c(-c3ccc(F)cc3)nn2c1 [Compound I-103, (R)-N-(1-(2-(2,4-difluorophenyl)-2-hydroxy-3-(1H-1,2,4-triazol-1-yl)propyl)piperidin-4-yl)-2-(4-fluorophenyl)-3-(pyridin-4-yl)pyrazolo[1,5-a]pyridine-6-carboxamide]
- IC50 [2]: 49.5 nM
- MIC50 (CaCi2): 0.0488 µM (≈ 0.0319 µg/mL)
- IC50 at 48 h [1]: 6.38 µM

Compound: O=C(NCC(O)(Cn1cncn1)c1ccc(F)cc1F)c1ccc2c(-c3ccncc3)c(-c3ccc(F)cc3)nn2c1 (stereo not drawn) [Compound I-115, N-(2-(2,4-difluorophenyl)-2-hydroxy-3-(1H-1,2,4-triazol-1-yl)propyl)-2-(4-fluorophenyl)-3-(pyridin-4-yl)pyrazolo[1,5-a]pyridine-6-carboxamide]
- IC50 [2]: 3.67 nM
- MIC50 (CaCi2): 1.27 µM (≈ 0.723 µg/mL)
- IC50 at 48 h [1]: > 20 µM

Compound: OC(CNCCOc1cccc2c(-c3ccncc3)c(-c3ccc(F)cc3)nn12)(Cn1cncn1)c1ccc(F)cc1F (stereo not drawn) [Compound I-153, 2-(2,4-difluorophenyl)-1-((2-((2-(4-fluorophenyl)-3-(pyridin-4-yl)pyrazolo[1,5-a]pyridin-7-yl)oxy)ethyl)amino)-3-(1H-1,2,4-triazol-1-yl)propan-2-ol]
- IC50 [2]: 48.7 nM
- MIC50 (CaCi2): 1.56 µM (≈ 0.914 µg/mL)
- IC50 at 48 h [1]: > 20 µM

Compound: O=C(NC1CCN(CC(O)(Cn2cncn2)c2ccc(F)cc2F)CC1)c1cccc2c(-c3ccncc3)c(-c3ccc(F)cc3)nn12 (stereo not drawn) [Compound I-155, N-(1-(2-(2,4-difluorophenyl)-2-hydroxy-3-(1H-1,2,4-triazol-1-yl)propyl)piperidin-4-yl)-2-(4-fluorophenyl)-3-(pyridin-4-yl)pyrazolo[1,5-a]pyridine-7-carboxamide]
- MIC50 (CaCi2): 0.781 µM (≈ 0.51 µg/mL)
- IC50 at 48 h [1]: 10.1 µM

Compound: CC(C)(C)OC(=O)N1CCc2c(n(CCCN3CCC(n4cnc(-c5ccc(F)cc5)c4-c4ccnc(N)n4)CC3)c3ccc(Cl)cc23)C1 [Compound I-229, tert-butyl 9-(3-(4-(5-(2-aminopyrimidin-4-yl)-4-(4-fluorophenyl)-1H-imidazol-1-yl)piperidin-1-yl)propyl)-6-chloro-1,3,4,9-tetrahydro-2H-pyrido[3,4-b]indole-2-carboxylate]
- IC50 [2]: 16.4 nM
- IC50 at 48 h [1]: 5.59 µM

Compound: Nc1nccc(-c2c(-c3ccc(F)cc3)ncn2C2CCN(CCCn3c4c(c5cccc(Cl)c53)CCNC4)CC2)n1 [Compound I-231, 4-(1-(1-(3-(8-chloro-1,2,3,4-tetrahydro-9H-pyrido[3,4-b]indol-9-yl)propyl)piperidin-4-yl)-4-(4-fluorophenyl)-1H-imidazol-5-yl)pyrimidin-2-amine]
- IC50 [2]: 4.13 nM
- MIC50 (CaCi2): > 25 µM
- IC50 at 48 h [1]: 1.84 µM

Compound: Cn1cc(-c2ccncc2COC(=O)C2CCN(CC(O)(Cn3cncn3)c3ccc(F)cc3F)CC2)c(-c2ccc(F)cc2)n1 (stereo not drawn) [Compound I-239, (4-(3-(4-fluorophenyl)-1-methyl-1H-pyrazol-4-yl)pyridin-3-yl)methyl 1-(2-(2,4-difluorophenyl)-2-hydroxy-3-(1H-1,2,4-triazol-1-yl)propyl)piperidine-4-carboxylate]
- IC50 [2]: 185 nM
- MIC50 (CaCi2): 0.195 µM (≈ 0.123 µg/mL)
- IC50 at 48 h [1]: > 20 µM

Compound: Cn1cc(-c2ccnc3c2C(=O)N(C2CCN(CC(O)(Cn4cncn4)c4ccc(F)cc4F)CC2)C3)c(-c2ccc(F)cc2)n1 (stereo not drawn) [Compound I-242, 6-(1-(2-(2,4-difluorophenyl)-2-hydroxy-3-(1H-1,2,4-triazol-1-yl)propyl)piperidin-4-yl)-4-(3-(4-fluorophenyl)-1-methyl-1H-pyrazol-4-yl)-6,7-dihydro-5H-pyrrolo[3,4-b]pyridin-5-one]
- IC50 [2]: 15.3 nM
- IC50 at 48 h [1]: > 20 µM

Compound: O=C(CC(O)(Cn1cncn1)c1ccc(F)cc1F)NCc1ccc2c(-c3ccncc3)c(-c3ccc(F)cc3)nn2c1 (stereo not drawn) [Compound I-255, 3-(2,4-difluorophenyl)-N-((2-(4-fluorophenyl)-3-(pyridin-4-yl)pyrazolo[1,5-a]pyridin-6-yl)methyl)-3-hydroxy-4-(1H-1,2,4-triazol-1-yl)butanamide]
- MIC50 (CaCi2): 1.56 µM (≈ 0.91 µg/mL)
- IC50 at 48 h [1]: 22.5 µM

Compound: C[C@@H](NCc1ccc2c(-c3ccncc3)c(-c3ccc(F)cc3)nn2c1)[C@](O)(Cn1cncn1)c1ccc(F)cc1F [Compound I-266, (2R,3R)-2-(2,4-difluorophenyl)-3-(((2-(4-fluorophenyl)-3-(pyridin-4-yl)pyrazolo[1,5-a]pyridin-6-yl)methyl)amino)-1-(1H-1,2,4-triazol-1-yl)butan-2-ol]
- MIC50 (CaCi2): 0.195 µM (≈ 0.111 µg/mL)
- IC50 at 48 h [1]: 19.5 µM

Compound: OC(Cn1cncn1)(c1ccc(F)cc1F)C(F)(F)c1ccc(C#Cc2ccc(NCc3ccc4c(-c5ccncc5)c(-c5ccc(F)cc5)nn4c3)cc2)cn1 (stereo not drawn) [Compound I-268]
- MIC50 (CaCi2): 1.17 µM (≈ 0.899 µg/mL)
- IC50 at 48 h [1]: > 50 µM

Compound: OC(Cn1cncn1)(c1ccc(F)cc1F)C(F)(F)c1ccc(C#Cc2ccc(OCCNCc3ccc4c(-c5ccncc5)c(-c5ccc(F)cc5)nn4c3)cc2)cn1 (stereo not drawn) [Compound I-270]
- MIC50 (CaCi2): 0.586 µM (≈ 0.476 µg/mL)
- IC50 at 48 h [1]: 1.54 µM
